For the compound `O=C1O[C@@H](CNC(=S)C(F)F)CN1c1ccc(N2CCCS(=O)(=O)CC2)c(F)c1`, the melting point (usually the temperature, or range, at which the solid turns liquid) was in the range of 128 to 130 °C.

In turn, `O=C1O[C@@H](CNC(=S)C(F)F)CN1c1cc(F)c(N2CCS(=O)(=O)CC2)c(F)c1` had a melting point of 88 to 90 °C. In turn, `O=C1O[C@@H](CNC(=S)C(F)F)CN1c1cc(F)c(C2CCS(=O)(=O)CC2)c(F)c1` had a melting point of 126 to 128 °C. In turn, `O=C1O[C@@H](CNC(=S)C(F)F)CN1c1ccc(N2CCS(=O)(=O)CC2)cc1` yielded a melting point of 126 to 127 °C.

For `O=C1O[C@@H](CNC(=S)C(F)F)CN1c1ccc(N2CC[S+]([O-])CC2)cc1`, the melting point was in the range of 155 to 156 °C.

In turn, `O=C1O[C@@H](CNC(=S)C(F)F)CN1c1ccc(C2CCS(=O)(=O)CC2)cc1` displayed a melting point of 174 to 176 °C. The figure for `O=C1O[C@@H](CNC(=S)C(F)F)CN1c1ccc(N2CCS(=O)(=O)CC2)c(F)c1` is 146 to 147 °C; for `O=C1O[C@@H](CNC(=S)C(F)F)CN1c1ccc(C2CCS(=O)(=O)CC2)c(F)c1` it is 168 to 169 °C.

The values above are taken from patent US6927229B2 (dated 2005).
